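Growth conditions: 96-well plates. Treatment: test compound, 48 hours, 5 concentrations. Analysis: linear interpolation between bracketing concentrations; unreached endpoints set to highest concentration. TGI is the concentration that stops growth completely.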
What was measured:
Assay in all cases: NCI tumour cell line growth inhibition, 48 h
[1] = system: 786-0 renal
[2] = system: A498 renal
[3] = system: A549 NSCLC
[4] = system: ACHN renal
[5] = system: BT-549 breast
[6] = system: CAKI-1 renal
[7] = system: CCRF-CEM leukemia
[8] = system: COLO 205 colon
[9] = system: DU-145 prostate
[10] = system: EKVX NSCLC
[11] = system: HCC-2998 colon
[12] = system: HCT-116 colon
[13] = system: HCT-15 colon
[14] = system: HOP-62 NSCLC
[15] = system: HOP-92 NSCLC
[16] = system: HT29 colon
[17] = system: IGROV1 ovarian
[18] = system: K-562 leukemia
[19] = system: KM12 colon
[20] = system: LOX IMVI melanoma
[21] = system: M14 melanoma
[22] = system: MALME-3M melanoma
[23] = system: MCF7 breast
[24] = system: MDA-MB-231 breast
[25] = system: MDA-MB-435
[26] = system: MDA-N
[27] = system: MOLT-4 leukemia
[28] = system: NCI-H226 lung
[29] = system: NCI-H23 lung
[30] = system: NCI-H460 lung
[31] = system: NCI-H522 lung
[32] = system: NCI/ADR-RES ovarian
[33] = system: OVCAR-3 ovarian
[34] = system: OVCAR-4 ovarian
[35] = system: OVCAR-5 ovarian
[36] = system: OVCAR-8 ovarian
[37] = system: PC-3 prostate
[38] = system: RPMI-8226 leukemia
[39] = system: RXF 393 renal
[40] = system: SF-268 CNS
[41] = system: SF-295 CNS
[42] = system: SF-539 CNS
[43] = system: SK-MEL-2 melanoma
[44] = system: SK-MEL-28 melanoma
[45] = system: SK-MEL-5 melanoma
[46] = system: SK-OV-3 ovarian
[47] = system: SN12C renal
[48] = system: SNB-19 CNS
[49] = system: SNB-75 CNS
[50] = system: SR leukemia
[51] = system: SW-620 colon
[52] = system: T-47D breast
[53] = system: TK-10 renal
[54] = system: U251 CNS
[55] = system: UACC-257 melanoma
[56] = system: UACC-62 melanoma
[57] = system: UO-31 renal
[58] = system: HL-60(TB) leukemia

Q: Which results are given for Nc1ccc2c(c1)C(=O)N1CCC[C@H]1C(=O)N2?
A: TGI [1]: > 100 µM; TGI [2]: > 100 µM; TGI [3]: > 100 µM; TGI [4]: > 100 µM; TGI [5]: > 100 µM; TGI [6]: > 100 µM; TGI [7]: 20.5 µM; TGI [8]: > 100 µM; TGI [9]: > 100 µM; TGI [10]: > 100 µM; TGI [11]: > 100 µM; TGI [12]: > 100 µM; TGI [13]: > 100 µM; TGI [14]: > 100 µM; TGI [15]: > 100 µM; TGI [16]: > 100 µM; TGI [17]: > 100 µM; TGI [18]: > 100 µM; TGI [19]: > 100 µM; TGI [20]: > 100 µM; TGI [21]: > 100 µM; TGI [22]: > 100 µM; TGI [23]: > 100 µM; TGI [24]: > 100 µM; TGI [25]: > 100 µM; TGI [26]: > 100 µM; TGI [27]: > 100 µM; TGI [28]: > 100 µM; TGI [29]: > 100 µM; TGI [30]: > 100 µM; TGI [31]: > 100 µM; TGI [32]: > 100 µM; TGI [33]: > 100 µM; TGI [34]: > 100 µM; TGI [35]: > 100 µM; TGI [36]: > 100 µM; TGI [37]: > 100 µM; TGI [38]: > 100 µM; TGI [39]: > 100 µM; TGI [40]: > 100 µM; TGI [41]: > 100 µM; TGI [42]: > 100 µM; TGI [43]: > 100 µM; TGI [44]: > 100 µM; TGI [45]: > 100 µM; TGI [46]: > 100 µM; TGI [47]: > 100 µM; TGI [48]: > 100 µM; TGI [49]: > 100 µM; TGI [50]: > 100 µM; TGI [51]: > 100 µM; TGI [52]: > 100 µM; TGI [53]: > 100 µM; TGI [54]: > 100 µM; TGI [55]: > 100 µM; TGI [56]: > 100 µM; TGI [57]: > 100 µM

Q: How did the TGI [1] turn out when NC(N)=NS(=O)(=O)c1ccc(NNc2c3ccccc3nc3c(C(=O)Nc4ccc(S(=O)(=O)Nc5ncccn5)cc4)cccc23)cc1 was run?
A: Its TGI is > 100 µM.

Q: And the TGI [2]?
A: The TGI was > 100 µM.

Q: What about the TGI [3] of the same compound?
A: Its TGI is > 100 µM.

Q: What about the TGI [4] of the same compound?
A: The TGI was > 100 µM.

Q: What about the TGI [6] of the same compound?
A: The TGI was > 100 µM.

Q: What about the TGI [7] of the same compound?
A: Its TGI is > 100 µM.

Q: And the TGI [8]?
A: The TGI was > 100 µM.

Q: What about the TGI [9] of the same compound?
A: Its TGI is > 100 µM.

Q: What about the TGI [10] of the same compound?
A: Its TGI is 96.2 µM.

Q: What about the TGI [11] of the same compound?
A: Its TGI is > 100 µM.

Q: What about the TGI [12] of the same compound?
A: The TGI was 78.1 µM.

Q: And the TGI [13]?
A: The TGI was > 100 µM.

Q: And the TGI [58]?
A: Its TGI is > 100 µM.

Q: What about the TGI [14] of the same compound?
A: The TGI was > 100 µM.

Q: What about the TGI [15] of the same compound?
A: Its TGI is > 100 µM.

Q: And the TGI [16]?
A: Its TGI is 54.6 µM.

Q: And the TGI [17]?
A: Its TGI is 44.6 µM.

Q: What about the TGI [18] of the same compound?
A: Its TGI is > 100 µM.

Q: What about the TGI [19] of the same compound?
A: The TGI was > 100 µM.

Q: What about the TGI [21] of the same compound?
A: The TGI was 89.7 µM.

Q: And the TGI [22]?
A: Its TGI is 67.8 µM.

Q: And the TGI [23]?
A: The TGI was > 100 µM.

Q: And the TGI [24]?
A: Its TGI is > 100 µM.

Q: And the TGI [25]?
A: Its TGI is > 100 µM.

Q: And the TGI [26]?
A: The TGI was > 100 µM.

Q: And the TGI [27]?
A: Its TGI is > 100 µM.

Q: What about the TGI [29] of the same compound?
A: The TGI was > 100 µM.

Q: And the TGI [30]?
A: Its TGI is > 100 µM.

Q: What about the TGI [31] of the same compound?
A: The TGI was 45.9 µM.

Q: And the TGI [32]?
A: The TGI was > 100 µM.

Q: What about the TGI [33] of the same compound?
A: The TGI was > 100 µM.

Q: And the TGI [34]?
A: The TGI was > 100 µM.

Q: What about the TGI [35] of the same compound?
A: The TGI was > 100 µM.

Q: What about the TGI [36] of the same compound?
A: The TGI was > 100 µM.

Q: What about the TGI [37] of the same compound?
A: Its TGI is > 100 µM.

Q: What about the TGI [38] of the same compound?
A: Its TGI is > 100 µM.

Q: And the TGI [39]?
A: The TGI was > 100 µM.

Q: What about the TGI [40] of the same compound?
A: The TGI was > 100 µM.

Q: What about the TGI [41] of the same compound?
A: Its TGI is > 100 µM.

Q: And the TGI [42]?
A: The TGI was > 100 µM.

Q: What about the TGI [43] of the same compound?
A: The TGI was > 100 µM.

Q: What about the TGI [44] of the same compound?
A: Its TGI is > 100 µM.

Q: What about the TGI [45] of the same compound?
A: Its TGI is > 100 µM.

Q: What about the TGI [47] of the same compound?
A: Its TGI is > 100 µM.

Q: And the TGI [48]?
A: The TGI was > 100 µM.

Q: And the TGI [49]?
A: The TGI was > 100 µM.

Q: What about the TGI [51] of the same compound?
A: The TGI was > 100 µM.

Q: What about the TGI [52] of the same compound?
A: Its TGI is > 100 µM.

Q: What about the TGI [54] of the same compound?
A: Its TGI is > 100 µM.

Q: What about the TGI [55] of the same compound?
A: The TGI was > 100 µM.

Q: And the TGI [56]?
A: Its TGI is 48.2 µM.

Q: What about the TGI [57] of the same compound?
A: The TGI was 83.7 µM.

— PubChem BioAssay (NCI)
